Activity calls are given as the source filed them. The rule behind the calls is not given here.
Assays:
[1] = Induction of type-1 ROS generation in methanol assessed as generation of OH at 0.5 uM followed by Xe lamp irradiation for 5 mins by DCFH staining based analysis; assay type: functional
[2] = Induction of type-1 ROS generation in methanol assessed as generation of O2 at 0.5 uM followed by Xe lamp irradiation for 5 mins by DCFH staining based analysis; assay type: functional
[3] = Induction of type-1 ROS generation in tetrahydrofuran assessed as fold increase in DHR123 fluorescence intensity at 0.5 uM followed by LED white light irradiation at 1.8 mWcm/2 for 300 sec by DCFH staining based analysis; assay type: functional
[4] = Photophysical property of the compound assessed as fluorescence quantum yield; assay type: physicochemical
[5] = Induction of type-1 ROS generation in tetrahydrofuran at 0.5 uM followed by LED white light irradiation at 1.8 mWcm/2 for 300 sec by DCFH staining based analysis; assay type: functional
[6] = Dark toxicity in human HBE cells assessed as cell viability incubated for 24 hrs in dark by MTT assay; assay type: cell-based
[7] = system: A549; assay: Antitumor activity in human A549 cells xenografted in Ab wild type Zebrafish embryos assessed as decrease in tumor growth by measuring fluorescence intensity at 2.9 to 5.8 ng preincubated for 12 hrs followed by irradiation of LED light of 1.8 mW cm/2 for 2 hrs and measured after 48 to 72 hrs; assay type: functional, cell-based; conditions: dose 2.9-5.8 ng, time 62-86 hrs
[8] = system: A549; assay: Induction of apoptosis in human A549 cells assessed as upregulation of cleaved caspase-3 expression at 2.5 to 5 uM with irradiation of LED light at 1.8 mW cm/2 by Western blot analysis; assay type: functional, cell-based; conditions: dose 2.5-5 µM
[9] = system: A549; assay: Inhibition of cell migration in human A549 cells assessed as appearance of loose cells at 0.25 uM preincubated for 12 hrs followed by incubation under dark condition and measured after 48 hrs by wound healing assay; assay type: functional, cell-based; conditions: time 60.0 hrs
[10] = target: Signal transducer and activator of transcription 3 (Homo sapiens) (UniProt P40763); assay: Inhibition of STAT3 pathway in human A549 cells assessed as decrease in STAT3 protein expression at 2.5 to 5 uM by Western blot analysis; assay type: cell-based; conditions: dose 2.5-5 µM
[11] = system: A549; assay: Induction of apoptosis in human A549 cells assessed as upregulation of cleaved PARP expression at 2.5 to 5 uM with irradiation of LED light at 1.8 mW cm/2 by Western blot analysis; assay type: functional, cell-based; conditions: dose 2.5-5 µM
[12] = system: Mitochondrial membrane; assay: Induction of mitochondrial membrane potential loss in human A549 cells assessed as decrease in red fluorescence of JC-1 aggregates at 0.4 to 1.2 uM incubated for 24 hrs with irradiation of LED light at 1.8 mW cm/2 by light microscopy analysis; assay type: cell membranes; conditions: dose 0.4-1.2 µM
[13] = Drug localization in ER of human A549 cells assessed as colocalization by ER-Tracker green staining based analysis; assay type: ADME, subcellular, Endoplasmic reticulum
[14] = system: A549; assay: Activation of MAPK pathway in human A549 cells assessed as effect on MAPK protein expression at 2.5 to 5 uM by Western blot analysis; assay type: cell-based; conditions: filed as activator, dose 2.5-5 µM
[15] = system: A549; assay: Activation of MAPK pathway in human A549 cells assessed as increase in MAPK phosphorylation level at 2.5 to 5 uM by Western blot analysis; assay type: cell-based; conditions: filed as activator, dose 2.5-5 µM
[16] = system: A549; assay: Inhibition of cell migration in human A549 cells at 0.25 uM preincubated for 12 hrs followed by LED light irradiation 1.8 mW cm/2 for 2 hrs and measured after 48 hrs by wound healing assay; assay type: functional, cell-based; conditions: time 62.0 hrs
[17] = Developmental toxicity in wild type AB zebrafish assessed as effect on heart at 50 uM incubated for 72 hrs under dark condition; design: species or system Danio rerio; conditions: in vivo
[18] = Developmental toxicity in wild type AB zebrafish assessed as survival rate at 50 uM incubated for 72 hrs under condition relative to control; design: species or system Danio rerio; conditions: in vivo
[19] = target: Signal transducer and activator of transcription 3 (Homo sapiens) (UniProt P40763); assay: Inhibition of STAT3 pathway in human A549 cells assessed as decrease in STAT3 phosphorylation level at 2.5 to 5 uM by Western blot analysis; assay type: cell-based; conditions: dose 2.5-5 µM
[20] = system: A549; assay: Induction of apoptosis in human A549 cells assessed as downregulation of caspase-3 expression at 2.5 to 5 uM with irradiation of LED light at 1.8 mW cm/2 by Western blot analysis; assay type: functional, cell-based; conditions: dose 2.5-5 µM
[21] = system: Mitochondrial membrane; assay: Induction of mitochondrial membrane potential loss in human A549 cells assessed as increase in green fluorescence of JC-1 monomers at 0.4 to 1.2 uM incubated for 24 hrs with irradiation of LED light at 1.8 mW cm/2 by light microscopy analysis; assay type: cell membranes; conditions: dose 0.4-1.2 µM
[22] = system: A549; assay: Induction of apoptosis in human A549 cells assessed as downregulation of Bcl-2 expression at 2.5 to 5 uM with irradiation of LED light at 1.8 mW cm/2 by Western blot analysis; assay type: functional, cell-based; conditions: dose 2.5-5 µM
[23] = system: A549; assay: Activation of ERK1/2 pathway in human A549 cells assessed as increase in ERK phosphorylation level at 2.5 to 5 uM by Western blot analysis; assay type: cell-based; conditions: filed as activator, dose 2.5-5 µM
[24] = Developmental toxicity in wild type AB zebrafish assessed as effect on morphological abnormalities at 1.57 to 50 uM incubated for 72 hrs followed by LED light irradiation at 1.8 mW cm/2; design: species or system Danio rerio; conditions: in vivo, dose 1.57-50 µM
[25] = system: MCF7; assay: Phototoxicity against human MCF7 cells assessed as reduction in cell proliferation at 0.156 to 10 uM irradiated with LED light at 1.8 mWcm/2 for 2 hrs and measured after 24 hrs under normoxia condition by MTT assay; assay type: functional, cell-based; conditions: dose 0.156-10 µM, time 26.0 hrs
[26] = Developmental toxicity in wild type AB zebrafish assessed as hatching rate at 50 uM incubated for 72 hrs under dark condition; design: species or system Danio rerio; conditions: in vivo
[27] = system: A549; assay: Activation of ERK1/2 pathway in human A549 cells assessed as effect on ERK protein expression at 2.5 to 5 uM by Western blot analysis; assay type: cell-based; conditions: filed as activator, dose 2.5-5 µM
[28] = Developmental toxicity in wild type AB zebrafish assessed as hatching rate at 50 uM incubated for 72 hrs followed by LED light irradiation at 1.8 mW cm/2 relative to control; design: species or system Danio rerio; conditions: in vivo
[29] = Induction of type-2 ROS generation in methanol assessed as generation of single oxygen at 0.5 uM followed by Xe lamp irradiation for 5 mins by DCFH staining based analysis; assay type: functional
[30] = system: MDA-MB-231; assay: Phototoxicity against human MDA-MB-231 cells assessed as reduction in cell proliferation at 0.156 to 10 uM irradiated with LED light at 1.8 mWcm/2 for 2 hrs and measured after 24 hrs under normoxia condition by MTT assay; assay type: functional, cell-based; conditions: dose 0.156-10 µM, time 26.0 hrs
[31] = system: A549; assay: Inhibition of cell migration in human A549 cells assessed as appearance of blurred cells at 0.25 uM preincubated for 12 hrs followed by incubation under dark condition and measured after 48 hrs by wound healing assay; assay type: functional, cell-based; conditions: time 60.0 hrs
[32] = Developmental toxicity in wild type AB zebrafish assessed as survival rate at 50 uM incubated for 72 hrs followed by LED light irradiation at 1.8 mW cm/2 relative to control; design: species or system Danio rerio; conditions: in vivo
[33] = Developmental toxicity in wild type AB zebrafish assessed as effect on heart at 50 uM incubated for 72 hrs followed by LED light irradiation at 1.8 mW cm/2 relative to control; design: species or system Danio rerio; conditions: in vivo
[34] = system: A549; assay: Inhibition of cell migration in human A549 cells at 0.25 uM preincubated for 12 hrs followed by incubation under dark condition and measured after 48 hrs by wound healing assay; assay type: functional, cell-based; conditions: time 60.0 hrs
[35] = target: T1, c-Jun N-terminal kinase, JNK (Homo sapiens) (UniProt P45983+P53779+P45984); assay: Activation of JNK pathway in human A549 cells assessed as increase in JNK phosphorylation level at 2.5 to 5 uM by Western blot analysis; assay type: cell-based; conditions: filed as activator, dose 2.5-5 µM
[36] = system: A549; assay: Induction of apoptosis in human A549 cells assessed as upregulation of cleaved Bax expression at 2.5 to 5 uM with irradiation of LED light at 1.8 mW cm/2 by Western blot analysis; assay type: functional, cell-based; conditions: dose 2.5-5 µM
[37] = system: A549; assay: Phototoxicity against human A549 cells assessed as reduction in cell proliferation at 0.156 to 10 uM irradiated with LED light at 1.8 mWcm/2 for 2 hrs and measured after 24 hrs under normoxia condition by MTT assay; assay type: functional, cell-based; conditions: dose 0.156-10 µM, time 26.0 hrs
[38] = Phototoxicity against human A549 cells assessed as reduction in cell proliferation irradiated with LED light at 1.8 mWcm/2 for 2 hrs and measured after 24 hrs under normoxia condition by MTT assay; assay type: functional, cell-based; conditions: A549, light or radiation study
[39] = target: T1, c-Jun N-terminal kinase, JNK (Homo sapiens); assay: Activation of JNK pathway in human A549 cells assessed as effect on JNK protein expression at 2.5 to 5 uM by Western blot analysis; assay type: cell-based; conditions: filed as activator, dose 2.5-5 µM
[40] = system: A549; assay: Induction of apoptosis in human A549 cells assessed as increase in nuclear shrinkage at 2.5 to 5 uM incubated for 30 mins with irradiation of LED light at 1.8 mW cm/2 by Hoechst 33342 staining based light microscopy analysis; assay type: functional, cell-based; conditions: dose 2.5-5 µM
[41] = Drug localization in mitochondria of human A549 cells assessed as colocalization by Mitotracker res staining based analysis; assay type: ADME
[42] = system: HepG2; assay: Phototoxicity against human HepG2 cells assessed as reduction in cell proliferation at 0.156 to 10 uM irradiated with LED light at 1.8 mWcm/2 for 2 hrs and measured after 24 hrs under normoxia condition by MTT assay; assay type: functional, cell-based; conditions: dose 0.156-10 µM, time 26.0 hrs
[43] = system: A549; assay: Inhibition of cell migration in human A549 cells assessed as appearance of loose cells at 0.25 uM preincubated for 12 hrs followed by LED light irradiation 1.8 mW cm/2 for 2 hrs and measured after 48 hrs by wound healing assay; assay type: functional, cell-based; conditions: time 62.0 hrs
[44] = system: A549; assay: Induction of intracellular ROS generation in human A549 cells by measuring red fluorescence at 0.4 to 1.2 uM incubated for 24 hrs under dark condition by DHE based fluorescence microscopy analysis; assay type: functional, cell-based; conditions: dose 0.4-1.2 µM
[45] = Developmental toxicity in wild type AB zebrafish assessed as effect on morphological abnormalities at 1.57 to 50 uM incubated for 72 hrs under dark condition; design: species or system Danio rerio; conditions: in vivo, dose 1.57-50 µM
[46] = system: A549; assay: Induction of intracellular ROS generation in human A549 cells by measuring red fluorescence at 0.4 to 1.2 uM incubated for 24 hrs in presence of LED light irradiation at 1.8 mW cm/2 by DHE based fluorescence microscopy analysis; assay type: functional, cell-based; conditions: dose 0.4-1.2 µM
[47] = system: A549; assay: Inhibition of cell migration in human A549 cells assessed as appearance of blurred cells at 0.25 uM preincubated for 12 hrs followed by LED light irradiation 1.8 mW cm/2 for 2 hrs and measured after 48 hrs by wound healing assay; assay type: functional, cell-based; conditions: time 62.0 hrs

Chain of Signal transducer and activator of transcription 3 (Homo sapiens) (P40763 whole entry): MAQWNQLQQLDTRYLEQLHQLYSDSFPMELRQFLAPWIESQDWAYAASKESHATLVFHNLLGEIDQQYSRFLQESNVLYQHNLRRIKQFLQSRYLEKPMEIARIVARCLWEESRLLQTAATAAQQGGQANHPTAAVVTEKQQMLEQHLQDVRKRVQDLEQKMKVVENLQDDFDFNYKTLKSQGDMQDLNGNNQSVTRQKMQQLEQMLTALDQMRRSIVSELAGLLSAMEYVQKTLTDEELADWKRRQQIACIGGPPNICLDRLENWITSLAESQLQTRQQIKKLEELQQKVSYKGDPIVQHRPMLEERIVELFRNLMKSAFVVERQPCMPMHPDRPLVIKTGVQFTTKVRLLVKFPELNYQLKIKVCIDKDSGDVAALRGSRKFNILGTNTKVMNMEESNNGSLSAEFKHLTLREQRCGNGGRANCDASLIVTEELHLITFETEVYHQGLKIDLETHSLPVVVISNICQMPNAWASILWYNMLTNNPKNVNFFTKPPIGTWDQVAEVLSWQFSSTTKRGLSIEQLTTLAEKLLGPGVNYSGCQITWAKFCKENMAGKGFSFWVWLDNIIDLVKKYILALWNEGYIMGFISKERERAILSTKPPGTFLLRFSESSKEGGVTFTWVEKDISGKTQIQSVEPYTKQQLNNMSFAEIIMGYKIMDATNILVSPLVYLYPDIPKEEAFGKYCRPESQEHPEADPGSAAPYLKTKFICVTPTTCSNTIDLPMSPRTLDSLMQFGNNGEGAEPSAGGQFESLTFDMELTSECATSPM

In the case of `CN(C)c1ccc2cc(C(=O)/C=C/c3ccc4c(c3)CN3CN4Cc4cc(Br)ccc43)c(=O)oc2c1`, the Activity [1] is reported as “Active”, the Activity [2] is reported as “Active” and the fold change (FC) [3] is reported as 25.5. For the same compound, the Fluorescence quantum yield [4] was 0.16, the Activity [5] was “Active” and the Activity [6] was “Toxic”.
For `CCN(CC)c1ccc2cc(C(=O)/C=C/c3ccc4c(c3)CN3CN4Cc4cc(Br)ccc43)c(=O)oc2c1`, the Activity [7] was “Active”, the Activity [8] was “Active” and the inhibition [9] was “Active”. For the same compound, the inhibition [10] was “Active”, the Activity [11] was “Active” and the Activity [12] was “Active”. For the same compound, the Drug uptake [13] was “Active”, the Activity [14] was “Active; Compound Showed Little Change In Protein Expression” and the Activity [15] was “Active”. For the same compound, the inhibition [16] was “Active”, the Activity [17] was “Non-toxic” and the survival at 72 h, 50 µM [18] was 100%. For the same compound, the inhibition [19] was “Active”, the fold change (FC) [3] was 25.6 and the Activity [20] was “Active”. For the same compound, the Activity [21] was “Active”, the Activity [22] was “Active” and the Activity [23] was “Active”. For the same compound, the Activity [24] was “Non-toxic”, the Activity [25] was “Active” and the Activity [26] was 100%. For the same compound, the Activity [27] was “Active; Compound Showed Little Change In Protein Expression”, the Activity [28] was 100% and the Activity [29] was “Active”. For the same compound, the Activity [30] was “Active”, the inhibition [31] was “Active” and the Fluorescence quantum yield [4] was 0.12. The survival at 72 h, 50 µM [32] was 100%, the Activity [5] was “Active” and the Activity [33] was “Non-toxic”. The inhibition [34] was “Active”, the Activity [35] was “Active” and the Activity [36] was “Active”. For the same compound, the Activity [37] was “Active”, the IC50 [38] was 0.46 µM and the Activity [39] was “Active; Compound Showed Little Change In Protein Expression”. For the same compound, the Activity [40] was “Active”, the Activity [6] was “Toxic” and the Drug uptake [41] was “Active”. For the same compound, the Activity [42] was “Active”, the inhibition [43] was “Active” and the Activity [44] was “inactive”. For the same compound, the Activity [45] was “Non-toxic”, the Activity [46] was “Active” and the inhibition [47] was “Active”.

From ChEMBL document CHEMBL6096699, “Tröger's Base as a Potential Bridge to Type-I Photosensitizers: Mechanism and Antitumor Applications” (J Med Chem, 2025)
